Laboratory results reported in patent publication US11389423B2, “Pharmaceutical composition, excipient for the composition and use of the composition” (priority 2018, dated 2022).

How the values were obtained:
[1] = test system: rats with MPTP microinfusion into the substantia nigra; experiment: Morris water maze (cued test/memory version), MPTP model; format: in vivo; conditions: 36 and 120 mg/kg orally, day 1 to day 10 after MPTP
Protocol: For the experiments with MPTP (neuroprotection), the animals were divided into the following experimental groups: • MPTP+placebo • MPTP+CBD-SINT 12 mg/kg • MPTP+CBD-SINT 36 mg/kg • MPTP+CBD-SINT 120 mg/kg • Sham+placebo • Naive
CBD-SINT and placebo were administered orally (gavage) for 18 days prior to the administration of the neurotoxin by stereotactic surgery, and for another 10 days after surgery. After the administration of the neurotoxin, the behavioral (locomotor activity) and biochemical (brain dopamine dosage) parameters were evaluated after 24 hours and after 10 days. The memory tests (Morris water maze) were performed daily from day 1 to day 10 after the administration of the neurotoxin (FIG. 13).
(§1) The rats were submitted to stereotactic surgery (stereotactic—David Kopf, model 957L) and received bilateral microinfusion of MPTP or 6-OHDA (different groups of rats) directly into the substantia nigra. For surgery, the following stereotaxic coordinates were used: anteroposterior: 5.0 mm from the bregma; mediolateral: ±2.1 mm from the midline and dorsoventral: −7.7 mm from the cranial vault (Paxinos and Watson, 1986). Then, 100 μg MPTP (diluted in 1 μL saline, with a flow of 0.33 μL/min) or 8 μg 6-OHDA (diluted in 2 μL saline with 0.2 μg/μL ascorbic acid, with a flow rate of 0.33 μL/min) were injected. […]

[2] = test system: male rabbits; experiment: Effects on respiratory system, respiratory rate; format: in vivo, New Zealand rabbits; conditions: one hour after treatment
Protocol: Male New Zealand rabbits (n=6 per group) were used for pharmacological safety tests. All tests were performed orally (route recommended for humans) and the investigated parameters were determined after a single administration of CBD-SINT. CBD-SINT doses were determined by allometric extrapolation from the average dose used in human patients (25 mg/kg).
The dose of 51 mg/kg was used as the intermediate dose, stipulating a higher and a lower dose. Three dose ranges were used according to the Guide for Conducting Non-Clinical Toxicology and Pharmacological Safety Studies Necessary for Drug Development (ANVISA, 2013; Version 1.2). Thus, the doses used were 17, 51 and 170 mg/kg of CBD-SINT.
After 6-h fasting, three doses of CBD-SINT (17, 51 and 170 mg/kg) were administered to different groups of male rabbits by gavage. Placebo was administered to the control group (1 mL/kg). One hour after treatments, all rabbits remained conscious in the prone position. The respiratory rate was determined using a Kofranyi-Michaelis respirometer (Murphy, 2002). For arterial blood gas analysis, arterial blood samples were taken from the central ear artery and immediately processed. All parameters below were determined on a Cobas b 221 multiparametric blood gas analyzer (Roche Diagnostics, Rotkreuz, Switzerland): pH, PCO2 (mm Hg), PO2 (mm Hg), SO2(%), Htc (%), tHb (g/dL), Na+ (mmol/L), K+ (mmol/L), Ca2+ (mmol/L), Cl− (mmol/L), glucose (mg/dL), lactate (mmol/L), O2Hb (%), HHb (%), P50 (mm Hg), H+ (nmol/L), BE (nmol/L), BEecf (nmol/L), BB (mmol/L), cHCO3 (mmol/L), ctCO2 (B) (mmol/L), ctCO2 (P) (mmol/L) and ctO2 (% by volume).

[3] = test system: rats with 6-OHDA microinfusion into the substantia nigra; experiment: Morris water maze (cued test/memory version), 6-OHDA model; format: in vivo; conditions: 6-OHDA rats, 36 or 120 mg/kg orally, day 18 to day 28
Protocol: For the experiments with 6-OHDA, the animals were divided into the following groups: • 6-OHDA+placebo • 6-OHDA+CBD-SINT 12 mg/kg • 6-OHDA+CBD-SINT 36 mg/kg • 6-OHDA+CBD-SINT 120 mg/kg • Sham+placebo • Naive
After the recovery period, CBD-SINT and placebo were administered orally (gavage) for 28 days. Locomotor activity tests were performed only at the end of treatments (day 28). The memory tests (Morris water maze) were performed daily from day 18 to day 28 (FIG. 14).
as §1
The animals were subjected to the same procedure until the four starting points are completed. […] The latency (time it takes the animals to find the platform) and the speed of the animals were quantified by the 2020 Plus Tracking System software.

Q: How did the “latency time to find the platform (memory deficit)” value [1] turn out when C=C(C)[C@@H]1CCC(C)=C[C@H]1c1c(O)cc(CCCCC)cc1O [CBD-SINT, Cannabidiol] was run?
A: prevented this deficit

Q: And the respiratory rate ([2]; 17 mg/kg by gavage)?
A: 55±6.48 bpm

Q: What about the respiratory rate ([2]; 51 mg/kg by gavage) of the same compound?
A: 57±5.43 bpm

Q: What about the respiratory rate ([2]; 170 mg/kg by gavage) of the same compound?
A: 56±5.66 bpm

Q: And the “latency time to find the platform (memory deficit)” value [3]?
A: did not show this deficit
